Active and inactive are the calls of the source.
Tests used:
[1] = molecular target: T1, Carboxy-terminal domain RNA polymerase II polypeptide A small phosphatase 1 (Homo sapiens, UniProt Q9GZU7); assay: CTDSP1 inhibitors, concentration-response, biochemical, absorbance readout, ultra-high-throughput screen actives (AID 540297); format: functional
T1 sequence (Q9GZU7 whole entry): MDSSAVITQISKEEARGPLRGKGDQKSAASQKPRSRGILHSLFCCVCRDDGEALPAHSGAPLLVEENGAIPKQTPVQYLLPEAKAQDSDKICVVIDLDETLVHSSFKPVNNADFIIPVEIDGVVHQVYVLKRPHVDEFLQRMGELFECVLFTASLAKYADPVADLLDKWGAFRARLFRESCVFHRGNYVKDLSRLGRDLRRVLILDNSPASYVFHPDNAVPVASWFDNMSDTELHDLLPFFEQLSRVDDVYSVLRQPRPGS

Large T antigen = Large T antigen (Simian virus 40, UniProt P03070); format: functional, Betapolyomavirus macacae;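 also: Confirmatory-stage PubChem screen for compounds that inhibit SV40 T antigen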
[2] = molecular target: Luciferin 4-monooxygenase (Photinus pyralis, UniProt P08659); assay: inhibition of purified Photinus pyralis luciferase – biochemical, luminescence, dose response (AID 1891)
[3] = Luminescence Cell-Based Dose Confirmation HTS to Identify Inhibitors of Platelet Dense Granule Release. [Related pubchem assays: 1663 (Primary HTS), 1678 (Summary of Project)]; format: functional
[4] = molecular target: Heat shock protein HSP 90-alpha (Homo sapiens, UniProt P07900); format: functional, organism-based
[5] = molecular target: Induced myeloid leukemia cell differentiation protein Mcl-1 (Homo sapiens, UniProt Q07820); format: functional
cells [6] = format: functional, cell-based
cells [7] = format: functional, cell-based; remark: listed apart in the source
[8] = Trypanosoma cruzi growth suppression in host cells – NIH3T3 host cells, beta-gal luminescence, confirmation (AID 2044); format: functional, cell-based;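 also: intracellular parasites grown in NIH/3T3 mouse fibroblasts as host cells; luminescent beta-galactosidase reporter signal from transgenic T. cruzi replicating inside host cells; inhibitors lower the luminescence signal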
[9] = NIH3T3 cell viability loss – ATP luminescence, mouse fibroblasts, counter-screen, dose response (AID 2010); format: functional, cell-based;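 also: cells exposed to compound for about 90 hours before reading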
BJ [10] = assay: BJ-TERT fibroblast viability loss – cell-based, RAS-independent, luminescence, dose response (AID 1933); format: functional; settings: Homo sapiens
BJ [11] = assay: cells; format: functional, cell-based; settings: Homo sapiens
BJ [12] = assay: BJ-TERT-LT-ST fibroblast viability loss – cell-based, RAS-independent, luminescence, dose response (AID 1935); format: functional; settings: Homo sapiens;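 also: BJ fibroblasts immortalized with TERT plus LT and ST oncogenes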
[13] = DRD fibroblast viability loss – cell-based, non-viral oncogenic, luminescence, dose response (AID 1934); format: functional; settings: Homo sapiens
[14] = HEK-293T cell viability reduction – luminescence, B-cell screen hits, cytotoxicity control for BCR NF-kB inhibitor project, dose response (AID 489021); format: functional, cell-based;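 also: HEK-293T cells carrying an NF-kB luciferase reporter; cells exposed to compound for about 14 hours before viability readout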
[15] = Luminescence Cell-Based Dose Retest to Confirm Inhibitors of Cancer Stem Cells. [Related pubchem assays (depositor defined):AID2717, AID2721]; format: functional; settings: Homo sapiens
[16] = reduction of Shn3 3'UTR-driven luciferase in osteoblasts – cell-based, Clone20 osteoblasts, firefly luciferase, cherry-picked, dose response (AID 624132); format: functional;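 also: firefly luciferase luminescence from reporter carrying the Shn3 3'UTR in osteoblasts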
[17] = loss of viability in HepG2 cells – cell-based, CellTiter-Glo, cherry-picked, cytotoxicity control for Shn3 inhibitor project, dose response (AID 624134); format: functional
[18] = non-specific 3'UTR reporter inhibition in Clone20-Shn3RL – cell-based, Renilla luciferase, cherry-picked, counter-screen for Shn3 inhibitor project, dose response (AID 624133); format: functional
cells [19] = format: functional, cell-based; remark: listed apart in the source
[20] = molecular target: T2, Trace amine-associated receptor 1 (Homo sapiens, UniProt Q96RJ0); assay: Fluorescence-based cell-based high throughput dose response assay to identify agonists of the human trace amine associated receptor 1 (TAAR1).; format: functional
T2 sequence (Q96RJ0 whole entry): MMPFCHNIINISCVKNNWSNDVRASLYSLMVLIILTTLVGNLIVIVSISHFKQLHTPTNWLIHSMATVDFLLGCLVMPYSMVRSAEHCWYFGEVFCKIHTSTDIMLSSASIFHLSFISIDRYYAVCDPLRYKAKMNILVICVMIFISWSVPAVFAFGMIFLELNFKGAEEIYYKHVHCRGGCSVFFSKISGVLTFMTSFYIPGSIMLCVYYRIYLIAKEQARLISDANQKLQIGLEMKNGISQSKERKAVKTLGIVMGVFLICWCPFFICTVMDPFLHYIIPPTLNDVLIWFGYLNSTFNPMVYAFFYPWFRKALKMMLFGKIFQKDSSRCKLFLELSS

[21] = molecular target: T2, Trace amine-associated receptor 1; assay: Counterscreen for agonists of the human trace amine associated receptor 1 (hTAAR1): Fluorescence-based cell-based high throughput dose response assay to identify hTAAR1 agonist that also desensitize TAAR1 receptor response.; format: functional
cells [22] = format: functional, cell-based; remark: listed apart in the source
Streptokinase A = molecular target: T3, Streptokinase A (Streptococcus pyogenes serotype M1, UniProt P10520); assay: viability-normalized secreted streptokinase activity reduction – plasminogen activation absorbance, OD405, dose response (AID 1914); format: functional, Streptococcus pyogenes M1 GAS;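 also: secreted streptokinase activity via plasminogen activation per viability signal from cell pellet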
T3 sequence (P10520 whole entry): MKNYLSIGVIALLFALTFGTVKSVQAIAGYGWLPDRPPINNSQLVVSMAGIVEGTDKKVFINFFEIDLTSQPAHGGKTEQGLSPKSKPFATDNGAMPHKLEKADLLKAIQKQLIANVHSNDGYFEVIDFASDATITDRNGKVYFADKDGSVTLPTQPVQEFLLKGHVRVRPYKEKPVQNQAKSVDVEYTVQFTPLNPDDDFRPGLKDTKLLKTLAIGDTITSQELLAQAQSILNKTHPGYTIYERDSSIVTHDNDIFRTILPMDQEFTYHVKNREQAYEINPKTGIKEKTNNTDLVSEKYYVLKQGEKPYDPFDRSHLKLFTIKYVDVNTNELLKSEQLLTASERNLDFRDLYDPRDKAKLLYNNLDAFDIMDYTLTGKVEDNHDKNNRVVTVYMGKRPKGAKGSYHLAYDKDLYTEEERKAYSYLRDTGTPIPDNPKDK

Chain of Induced myeloid leukemia cell differentiation protein Mcl-1 (Q07820 whole entry): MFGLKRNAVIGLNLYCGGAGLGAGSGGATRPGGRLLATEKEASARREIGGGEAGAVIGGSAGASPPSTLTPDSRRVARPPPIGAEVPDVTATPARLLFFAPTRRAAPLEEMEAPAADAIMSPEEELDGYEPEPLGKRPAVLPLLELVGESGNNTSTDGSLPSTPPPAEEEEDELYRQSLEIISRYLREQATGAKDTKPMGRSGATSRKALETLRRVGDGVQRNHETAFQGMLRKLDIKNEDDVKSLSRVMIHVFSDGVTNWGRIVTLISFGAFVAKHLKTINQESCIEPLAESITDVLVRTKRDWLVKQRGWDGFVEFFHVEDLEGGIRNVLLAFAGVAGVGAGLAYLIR
Chain of Luciferin 4-monooxygenase (P08659 whole entry): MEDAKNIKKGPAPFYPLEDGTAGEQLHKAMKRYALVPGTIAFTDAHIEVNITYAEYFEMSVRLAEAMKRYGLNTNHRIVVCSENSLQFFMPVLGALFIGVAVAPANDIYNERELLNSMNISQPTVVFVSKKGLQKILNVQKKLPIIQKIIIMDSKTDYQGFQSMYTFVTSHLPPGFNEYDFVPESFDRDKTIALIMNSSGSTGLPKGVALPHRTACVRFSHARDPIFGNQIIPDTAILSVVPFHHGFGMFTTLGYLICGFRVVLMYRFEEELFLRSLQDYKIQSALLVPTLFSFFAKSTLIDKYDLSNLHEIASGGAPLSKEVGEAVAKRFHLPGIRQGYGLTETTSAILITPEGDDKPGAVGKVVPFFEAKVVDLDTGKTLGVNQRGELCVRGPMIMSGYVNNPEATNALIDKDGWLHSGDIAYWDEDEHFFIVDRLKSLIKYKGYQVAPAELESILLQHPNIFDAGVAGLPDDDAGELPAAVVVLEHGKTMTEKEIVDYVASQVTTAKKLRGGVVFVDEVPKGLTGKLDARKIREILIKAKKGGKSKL
Chain of Large T antigen (P03070 whole entry): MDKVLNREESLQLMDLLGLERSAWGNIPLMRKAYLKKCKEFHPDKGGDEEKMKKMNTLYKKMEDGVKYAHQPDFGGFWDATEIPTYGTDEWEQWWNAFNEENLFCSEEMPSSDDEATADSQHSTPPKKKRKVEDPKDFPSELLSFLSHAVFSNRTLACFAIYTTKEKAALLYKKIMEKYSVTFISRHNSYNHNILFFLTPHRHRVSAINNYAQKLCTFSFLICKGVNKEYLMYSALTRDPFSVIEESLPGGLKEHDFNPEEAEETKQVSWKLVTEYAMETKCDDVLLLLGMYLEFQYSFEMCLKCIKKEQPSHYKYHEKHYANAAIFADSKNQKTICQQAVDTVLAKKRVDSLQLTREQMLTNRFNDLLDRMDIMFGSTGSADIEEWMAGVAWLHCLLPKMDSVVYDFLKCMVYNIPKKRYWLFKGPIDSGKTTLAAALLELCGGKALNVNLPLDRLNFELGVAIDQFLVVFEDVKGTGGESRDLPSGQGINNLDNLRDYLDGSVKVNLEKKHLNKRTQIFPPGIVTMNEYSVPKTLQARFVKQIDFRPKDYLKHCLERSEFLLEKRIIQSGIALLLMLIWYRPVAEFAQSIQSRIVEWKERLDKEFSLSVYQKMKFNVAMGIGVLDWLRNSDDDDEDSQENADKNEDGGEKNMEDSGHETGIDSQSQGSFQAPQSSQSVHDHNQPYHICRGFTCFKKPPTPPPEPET

Q: With `COc1ccc(-c2nnc(NC(=O)c3cccs3)s2)c(OC)c1` as the compound, how does the IC50 [1] read?
A: 3.57 µM (active)

Q: Which IC50 (Large T antigen) does the source give for `N/C(=N\N=C\c1ccc(O)c(O)c1)c1nonc1N` here?
A: 23.4 µM (active)

Q: What about the EC50 [2] of the same compound?
A: 1.67 µM (active)

Q: And the EC50 [3]?
A: 1.74 µM (active)

Q: For `C[Se]C[C@@H](N)C(=O)O`, which IC50 [1] is on record?
A: 15 µM (active)

Q: Which AC50 [4] does the source give for `CC(C)c1c(O)ccc2c1CC[C@H]1C(C)(C)CCC[C@]21C` [TOTAROL] here?
A: 3.79 µM (active)

Q: Which IC50 [5] does the source give for `O=S(=O)(Cc1cc(Cl)nc(-c2ccncc2)n1)c1ccccc1` here?
A: 6.12 µM (active)

Q: What does the source list for `O=C(c1cc(Br)ccc1Cl)N1CCC2(CC1)OCCO2`?
A: EC50 (cells [6]): > 350 µM (not active); EC50 (cells [7]): 67 µM (active)

Q: For `[O-][Cl+3]([O-])([O-])[O-].c1ccc(-c2ccc(-c3n(-c4ccccn4)c4ccccc4[n+]3-c3ccccn3)cc2)cc1`, which EC50 [8] is on record?
A: 0.832 µM (active)

Q: What about the EC50 [9] of the same compound?
A: > 60 µM (not active)

Q: What about the IC50 [5] of the same compound?
A: > 54 µM (not active)

Q: Which results are given for `CCOc1ccc(/C=C2\SC(=S)N(CCCC(=O)NCCCN3CCOCC3)C2=O)cc1`?
A: EC50 (BJ [10]): 20.1 µM (active); EC50 (BJ [11]): > 150 µM (not active); EC50 (BJ [12]): > 150 µM (not active); EC50 [13]: > 150 µM (not active); IC50 [14]: > 80 µM (inactive)

Q: For `CSc1nnc(C)c(/C=C/Nc2ccc(F)cc2F)n1`, which IC50 [1] is on record?
A: 13.3 µM (active)

Q: Which AC50 [15] does the source give for `CC(C)N(CCC(=O)c1ccc2ccccc2c1)Cc1ccccc1` here?
A: 5.58 µM (active)

Q: And the AC50 [4]?
A: 9.38 µM (active)

Q: What about the AC50 [16] of the same compound?
A: 4.22 µM (active)

Q: What about the AC50 [17] of the same compound?
A: > 70 µM (inactive)

Q: And the AC50 [18]?
A: 17.3 µM (active)

Q: For `O=C(CSC(=S)N1CCCC1)NCCc1ccccc1`, which IC50 (cells [19]) is on record?
A: > 29.9 µM (inactive)

Q: And the EC50 [20]?
A: 1.96 µM (active)

Q: What about the IC50 [21] of the same compound?
A: 1.19 µM (active)

Q: And the EC50 (cells [22])?
A: > 29.9 µM (inactive)

Q: What does the source list for `Cc1cc(/C=C2\SC(=S)N=C2O)c(C)n1-c1cccc(O)c1`?
A: EC50 (Streptokinase A): > 150 µM (not active); AC50 [4]: 8.8 µM (active)

Q: For `O=C(CC1C(=O)NCCN1CCCc1ccccc1)NCCc1ccccc1Cl` (configuration not stated), which IC50 (cells [19]) is on record?
A: > 29.9 µM (inactive)

Q: What about the EC50 [20] of the same compound?
A: 1.51 µM (active)

Q: What about the IC50 [21] of the same compound?
A: 5.21 µM (active)

Q: What about the EC50 (cells [22]) of the same compound?
A: > 29.9 µM (inactive)

Q: For `O=C(NCN1CCc2ccccc2C1)c1cnccn1`, which IC50 (cells [19]) is on record?
A: > 29.9 µM (inactive)

Q: What about the EC50 [20] of the same compound?
A: 2.14 µM (active)

Q: And the IC50 [21]?
A: 8.03 µM (active)

Q: And the EC50 (cells [22])?
A: > 29.9 µM (inactive)

Reference: ChEMBL document CHEMBL1201862, “PubChem BioAssay data set” (2004)
